According to US12522602B2, “Derivatives having 2,3-dihydro-1H-indene or 2,3-dihydrobenzofuran moiety or pharmaceutically acceptable salt thereof and pharmaceutical compositions comprising the same” (YUHAN CORPORATION, priority 2019, dated 2026):

What follows are compounds tested on GM1 production in Jurkat cells (assay: cells). Conditions: Homo sapiens, Jurkat, 72 h.
Assay type: cell-based

Row | SMILES | IC50 [µM]
1 | Cc1cc(-c2ccc3c(c2)CC(C)(C)C3NC(=O)O[C@@H]2CN3CCC2CC3)ccc1OC(F)(F)F (stereo partly drawn) [Example 247, (S)-quinuclidin-3-yl (2,2-dimethyl-5-(3-methyl-4-(trifluoromethoxy)phenyl)-2,3-dihydro-1H-inden-1-yl)carbamate] | 0.041
2 | CSc1cc(-c2ccc3c(c2)CC(C)(C)C3NC(=O)O[C@@H]2CN3CCC2CC3)cc(C(F)(F)F)c1 (stereo partly drawn) [Example 248, (S)-quinuclidin-3-yl (2,2-dimethyl-5-(3-(methylthio)-5-(trifluoromethyl)phenyl)-2,3-dihydro-1H-inden-1-yl)carbamate] | 0.0149
3 | CC1(C)Cc2cc(-c3ccc(OC(F)(F)F)c(F)c3)ccc2C1NC(=O)O[C@@H]1CN2CCC1CC2 (stereo partly drawn) [Example 249, (S)-quinuclidin-3-yl (5-(3-fluoro-4-(trifluoromethoxy)phenyl)-2,2-dimethyl-2,3-dihydro-1H-inden-1-yl)carbamate] | 0.037
4 | CCOc1cc(C(F)(F)F)ccc1-c1ccc2c(c1)CC(C)(C)C2NC(=O)O[C@@H]1CN2CCC1CC2 (stereo partly drawn) [Example 250, (S)-quinuclidin-3-yl (5-(2-ethoxy-4-(trifluoromethyl)phenyl)-2,2-dimethyl-2,3-dihydro-1H-inden-1-yl)carbamate] | 0.033
5 | COc1ccc(C(F)(F)F)cc1-c1ccc2c(c1)CC(C)(C)C2NC(=O)O[C@@H]1CN2CCC1CC2 (stereo partly drawn) [Example 251, (S)-quinuclidin-3-yl (5-(2-methoxy-5-(trifluoromethyl)phenyl)-2,2-dimethyl-2,3-dihydro-1H-inden-1-yl)carbamate] | 0.0072
6 | CC1(C)Cc2cc(-c3ccc(C(F)(F)F)cc3C(F)(F)F)ccc2C1NC(=O)O[C@@H]1CN2CCC1CC2 (stereo partly drawn) [Example 252, (S)-quinuclidin-3-yl (5-(2,4-bis(trifluoromethyl)phenyl)-2,2-dimethyl-2,3-dihydro-1H-inden-1-yl)carbamate] | 0.0439
7 | Cc1c(Cl)cccc1-c1ccc2c(c1)CC(C)(C)C2NC(=O)O[C@@H]1CN2CCC1CC2 (stereo partly drawn) [Example 253, (S)-quinuclidin-3-yl (5-(3-chloro-2-methylphenyl)-2,2-dimethyl-2,3-dihydro-1H-inden-1-yl)carbamate] | 0.0372
8 | COc1cc(-c2ccc3c(c2)CC(C)(C)C3NC(=O)O[C@@H]2CN3CCC2CC3)ccc1C (stereo partly drawn) [Example 254, (S)-quinuclidin-3-yl (5-(3-methoxy-4-methylphenyl)-2,2-dimethyl-2,3-dihydro-1H-inden-1-yl)carbamate] | 0.0452
9 | Cc1cc(-c2ccc3c(c2)CC(C)(C)C3NC(=O)O[C@@H]2CN3CCC2CC3)ccc1F (stereo partly drawn) [Example 255, (S)-quinuclidin-3-yl (5-(4-fluoro-3-methylphenyl)-2,2-dimethyl-2,3-dihydro-1H-inden-1-yl)carbamate] | 0.0358
10 | CCOc1ccc(F)cc1-c1ccc2c(c1)CC(C)(C)C2NC(=O)O[C@@H]1CN2CCC1CC2 (stereo partly drawn) [Example 256, (S)-quinuclidin-3-yl (5-(2-ethoxy-5-fluorophenyl)-2,2-dimethyl-2,3-dihydro-1H-inden-1-yl)carbamate] | 0.0246
11 | CCCOc1cc(F)cc(-c2ccc3c(c2)CC(C)(C)C3NC(=O)O[C@@H]2CN3CCC2CC3)c1 (stereo partly drawn) [Example 257, (S)-quinuclidin-3-yl (5-(3-fluoro-5-propoxyphenyl)-2,2-dimethyl-2,3-dihydro-1H-inden-1-yl)carbamate] | 0.0274
12 | CC1(C)Cc2cc(-c3cc(C(F)(F)F)cc(C(F)(F)F)c3)ccc2C1NC(=O)O[C@@H]1CN2CCC1CC2 (stereo partly drawn) [Example 258, (S)-quinuclidin-3-yl (5-(3,5-bis(trifluoromethyl)phenyl)-2,2-dimethyl-2,3-dihydro-1H-inden-1-yl)carbamate] | 0.0174
13 | Cc1ccc(-c2ccc3c(c2)CC(C)(C)C3NC(=O)O[C@@H]2CN3CCC2CC3)cc1Cl (stereo partly drawn) [Example 259, (S)-quinuclidin-3-yl (5-(3-chloro-4-methylphenyl)-2,2-dimethyl-2,3-dihydro-1H-inden-1-yl)carbamate] | 0.0102
14 | Cc1ccc(C)c(-c2ccc3c(c2)CC(C)(C)C3NC(=O)O[C@@H]2CN3CCC2CC3)c1 (stereo partly drawn) [Example 260, (S)-quinuclidin-3-yl (5-(2,5-dimethylphenyl)-2,2-dimethyl-2,3-dihydro-1H-inden-1-yl)carbamate] | 0.0144
15 | CC1(C)Cc2cc(-c3ccc(F)c(Cl)c3)ccc2C1NC(=O)O[C@@H]1CN2CCC1CC2 (stereo partly drawn) [Example 261, (S)-quinuclidin-3-yl (5-(3-chloro-4-fluorophenyl)-2,2-dimethyl-2,3-dihydro-1H-inden-1-yl)carbamate] | 0.0515
16 | CCOc1ccc(-c2ccc3c(c2)CC(C)(C)C3NC(=O)O[C@@H]2CN3CCC2CC3)cn1 (stereo partly drawn) [Example 262, (S)-quinuclidin-3-yl (5-(6-ethoxypyridin-3-yl)-2,2-dimethyl-2,3-dihydro-1H-inden-1-yl)carbamate] | 0.0344
17 | CCOc1cc(-c2ccc3c(c2)CC(C)(C)C3NC(=O)O[C@@H]2CN3CCC2CC3)ccn1 (stereo partly drawn) [Example 263, (S)-quinuclidin-3-yl (5-(2-ethoxypyridin-4-yl)-2,2-dimethyl-2,3-dihydro-1H-inden-1-yl)carbamate] | 0.0349
18 | CC(C)Oc1cc(-c2ccc3c(c2)CC(C)(C)C3NC(=O)O[C@@H]2CN3CCC2CC3)ccn1 (stereo partly drawn) [Example 264, (S)-quinuclidin-3-yl (5-(2-isopropoxypyridin-4-yl)-2,2-dimethyl-2,3-dihydro-1H-inden-1-yl)carbamate] | 0.0144

Row | SMILES | IC50 [µM]
19 | CCCOc1ccc(-c2ccc3c(c2)CC(C)(C)C3NC(=O)O[C@@H]2CN3CCC2CC3)cn1 (stereo partly drawn) [Example 265, (S)-quinuclidin-3-yl (2,2-dimethyl-5-(6-propoxypyridin-3-yl)-2,3-dihydro-1H-inden-1-yl)carbamate] | 0.0067
20 | CCCCOc1ccc(-c2ccc3c(c2)CC(C)(C)C3NC(=O)O[C@@H]2CN3CCC2CC3)cn1 (stereo partly drawn) [Example 266, (S)-quinuclidin-3-yl (5-(6-butoxypyridin-3-yl)-2,2-dimethyl-2,3-dihydro-1H-inden-1-yl)carbamate] | 0.0047
21 | COCCOc1ccc(-c2ccc3c(c2)CC(C)(C)C3NC(=O)O[C@@H]2CN3CCC2CC3)cn1 (stereo partly drawn) [Example 267, (S)-quinuclidin-3-yl (5-(6-(2-methoxyethoxy)pyridin-3-yl)-2,2-dimethyl-2,3-dihydro-1H-inden-1-yl)carbamate] | 0.0831
22 | CC(C)COc1ccc(-c2ccc3c(c2)CC(C)(C)C3NC(=O)O[C@@H]2CN3CCC2CC3)cn1 (stereo partly drawn) [Example 268, (S)-quinuclidin-3-yl (5-(6-isobutoxypyridin-3-yl)-2,2-dimethyl-2,3-dihydro-1H-inden-1-yl)carbamate] | 0.0025
23 | CC(C)Cc1cccc(-c2ccc3c(c2)CC(C)(C)C3NC(=O)O[C@@H]2CN3CCC2CC3)c1 (stereo partly drawn) [Example 269, (S)-quinuclidin-3-yl (5-(3-isobutylphenyl)-2,2-dimethyl-2,3-dihydro-1H-inden-1-yl)carbamate] | 0.0065
24 | CCCCOc1ccc(-c2ccc3c(c2)CC(C)(C)C3NC(=O)O[C@@H]2CN3CCC2CC3)cc1 (stereo partly drawn) [Example 270, (S)-quinuclidin-3-yl (5-(4-butoxyphenyl)-2,2-dimethyl-2,3-dihydro-1H-inden-1-yl)carbamate] | 0.0023
25 | COc1ccnc(OC)c1-c1ccc2c(c1)CC(C)(C)C2NC(=O)O[C@@H]1CN2CCC1CC2 (stereo partly drawn) [Example 271, (S)-quinuclidin-3-yl (5-(2,4-dimethoxypyridin-3-yl)-2,2-dimethyl-2,3-dihydro-1H-inden-1-yl)carbamate] | 0.0306
26 | CC(=O)c1sccc1-c1ccc2c(c1)CC(C)(C)C2NC(=O)O[C@@H]1CN2CCC1CC2 (stereo partly drawn) [Example 272, (S)-quinuclidin-3-yl (5-(2-acetylthiophen-3-yl)-2,2-dimethyl-2,3-dihydro-1H-inden-1-yl)carbamate] | 0.0493
27 | CC1(C)Cc2cc(/C=C/c3cccc(F)c3)ccc2C1NC(=O)O[C@@H]1CN2CCC1CC2 (stereo partly drawn) [Example 273, (S)-quinuclidin-3-yl (5-((E)-3-fluorostyryl)-2,2-dimethyl-2,3-dihydro-1H-inden-1-yl)carbamate] | 0.0134
28 | CCc1ccc(/C=C/c2ccc3c(c2)CC(C)(C)C3NC(=O)O[C@@H]2CN3CCC2CC3)cc1 (stereo partly drawn) [Example 274, (S)-quinuclidin-3-yl (5-((E)-4-ethylstyryl)-2,2-dimethyl-2,3-dihydro-1H-inden-1-yl)carbamate] | 0.0103
29 | CC1(C)Cc2cc(/C=C/C3CCCCC3)ccc2C1NC(=O)O[C@@H]1CN2CCC1CC2 (stereo partly drawn) [Example 275, (S)-quinuclidin-3-yl (5-((E)-2-cyclohexylvinyl)-2,2-dimethyl-2,3-dihydro-1H-inden-1-yl)carbamate] | 0.025
30 | CCC1(CC)Cc2cc(-c3ccc(F)cc3)ccc2C1NC(=O)O[C@@H]1CN2CCC1CC2 (stereo partly drawn) [Example 276, (S)-quinuclidin-3-yl (2,2-diethyl-5-(4-fluorophenyl)-2,3-dihydro-1H-inden-1-yl)carbamate] | 0.0332
31 | CCc1ccc(-c2ccc3c(c2)CC(CC)(CC)C3NC(=O)O[C@@H]2CN3CCC2CC3)cc1 (stereo partly drawn) [Example 277, (S)-quinuclidin-3-yl (2,2-diethyl-5-(4-ethylphenyl)-2,3-dihydro-1H-inden-1-yl)carbamate] | 0.0027
32 | CCCc1ccc(-c2ccc3c(c2)CC(CC)(CC)C3NC(=O)O[C@@H]2CN3CCC2CC3)cc1 (stereo partly drawn) [Example 278, (S)-quinuclidin-3-yl (2,2-diethyl-5-(4-propylphenyl)-2,3-dihydro-1H-inden-1-yl)carbamate] | 0.006
33 | CCC1(CC)Cc2cc(-c3ccc(C(C)(C)C)cc3)ccc2C1NC(=O)O[C@@H]1CN2CCC1CC2 (stereo partly drawn) [Example 279, (S)-quinuclidin-3-yl (5-(4-(tert-butyl)phenyl)-2,2-diethyl-2,3-dihydro-1H-inden-1-yl)carbamate] | 0.0073
34 | CCCCc1ccc(-c2ccc3c(c2)CC(CC)(CC)C3NC(=O)O[C@@H]2CN3CCC2CC3)cc1 (stereo partly drawn) [Example 280, (S)-quinuclidin-3-yl (5-(4-butylphenyl)-2,2-diethyl-2,3-dihydro-1H-inden-1-yl)carbamate] | 0.0016
35 | CCC1(CC)Cc2cc(-c3ccc(C4CC4)cc3)ccc2C1NC(=O)O[C@@H]1CN2CCC1CC2 (stereo partly drawn) [Example 281, (S)-quinuclidin-3-yl (5-(4-cyclopropylphenyl)-2,2-diethyl-2,3-dihydro-1H-inden-1-yl)carbamate] | 0.005
